Measurements published in ChEMBL document CHEMBL4052663, “Synthesis, antiviral evaluation and molecular docking studies of N4-aryl substituted/unsubstituted thiosemicarbazones derived from 1-indanones as potent anti-bovine viral diarrhea virus agents” (Bioorg Med Chem, 2017).
Active and inactive are the calls of the source. The calls are words filed in the database; no cut-off is given here.

Legend:
[1] = Antiviral activity against Bovine viral diarrhea virus 1-NADL infected in bovine MDBK cells assessed as reduction in plaque forming units after 72 hrs by crystal violet staining-based assay; type: functional, cell-based; conditions: Bovine viral diarrhea virus isolates and strains
[2] = system: Bovine viral diarrhea virus 1; assay: Antiviral activity against TSC-resistant Bovine viral diarrhea virus 1 harboring NS5B N264D/A392E double mutant infected in bovine MDBK cells assessed as reduction in virus induced cytopathic effect after 72 hrs by MTS/PES assay; type: functional, cell-based; conditions: Bovine viral diarrhea virus isolates and strains
[3] = system: Bovine viral diarrhea virus 1; assay: Ratio of EC50 for TSC-resistant Bovine viral diarrhea virus type 1 harboring NS5B N264D/A392E double mutant to EC50 for wild type Bovine viral diarrhea virus type 1 ATCC VR 534; type: functional
[4] = system: Bovine viral diarrhea virus 1; assay: Antiviral activity against wild type Bovine viral diarrhea virus 1 ATCC VR 534 infected in bovine MDBK cells assessed as reduction in virus induced cytopathic effect after 72 hrs by MTS/PES assay; type: functional, cell-based; conditions: Bovine viral diarrhea virus isolates and strains, ATCC VR 534, MDBK
[5] = Selectivity index, ratio of CC50 for bovine MDBK cells to EC50 for Bovine viral diarrhea virus 1-NADL; type: toxicity; conditions: cattle, read-out: Ratio CC50/EC50
[6] = Cytotoxicity against bovine MDBK cells assessed as reduction in cell viability after 3 days by MTS/PES assay; type: cell-based, Bos taurus; conditions: cattle
[7] = system: Bovine viral diarrhea virus 1; assay: Antiviral activity against Bovine viral diarrhea virus 1 ATCC VR 534 infected in bovine MDBK cells assessed as reduction in virus induced cytopathic effect at 25 uM treated up to 4 hrs post infection measured after 48 hrs by MTS/PES assay; type: functional, cell-based

COc1cc2c(cc1OC)/C(=N/NC(N)=S)CC2
EC50 [1]: 3.8 µM
EC50 [2]: > 80 µM
Ratio EC50 [3]: >41
EC50 [4]: 1.95 µM
selectivity ratio [5]: > 21.1
CC50 at 72 h [6]: > 80 µM

Cc1ccc(NC(=S)N/N=C2\CCc3ccccc32)cc1
EC50 [1]: > 20 µM
CC50 at 72 h [6]: > 20 µM

NC(=S)N/N=C1\CCc2ccc([N+](=O)[O-])cc21
inhibition [7]: Active
EC50 [1]: 2.7 µM
EC50 [2]: 1.07 µM
EC50 [4]: 1.04 µM
selectivity ratio [5]: > 9.3
CC50 at 72 h [6]: > 25 µM

S=C(N/N=C1\CCc2ccccc21)Nc1ccc(Cl)cc1
EC50 [1]: > 20 µM
CC50 at 72 h [6]: > 20 µM

COc1ccc(NC(=S)N/N=C2\CCc3cc(OC)c(OC)cc32)cc1
EC50 [1]: 12.9 µM
selectivity ratio [5]: > 1.6
CC50 at 72 h [6]: > 20 µM

COc1cc2c(cc1OC)/C(=N/NC(=S)Nc1ccc(Cl)cc1)CC2
EC50 [1]: 6.6 µM
selectivity ratio [5]: > 1.5
CC50 at 72 h [6]: > 10 µM

O=[N+]([O-])c1ccc(NC(=S)N/N=C2\CCc3ccccc32)cc1
EC50 [1]: > 10 µM
CC50 at 72 h [6]: > 10 µM

S=C(N/N=C1\CCc2ccccc21)Nc1ccccc1
EC50 [1]: > 10 µM
CC50 at 72 h [6]: > 10 µM

NC(=O)c1ncn([C@@H]2O[C@H](CO)[C@@H](O)[C@H]2O)n1 [RIBAVIRIN]
EC50 [1]: 7.7 µM
selectivity ratio [5]: 7.1

COc1cc2c(cc1OC)/C(=N/NC(=S)Nc1ccccc1)CC2
EC50 [1]: 8.4 µM
selectivity ratio [5]: > 1.2
CC50 at 72 h [6]: > 10 µM

Cc1cc(Br)c(C)c2c1/C(=N/NC(N)=S)CC2
EC50 [1]: 7.4 µM
selectivity ratio [5]: > 13.5
CC50 at 72 h [6]: > 100 µM

COc1cc2c(cc1OC)/C(=N/NC(=S)Nc1ccc(C)cc1)CC2
EC50 [1]: 8.8 µM
selectivity ratio [5]: > 2.3
CC50 at 72 h [6]: > 20 µM

Fc1ccc(NC(=S)N/N=C2\CCc3ccccc32)cc1
EC50 [1]: > 20 µM
CC50 at 72 h [6]: > 20 µM

COc1ccc(NC(=S)N/N=C2\CCc3ccccc32)cc1
EC50 [1]: > 10 µM
CC50 at 72 h [6]: > 10 µM

NC(=S)N/N=C1\CCc2cc(F)ccc21
EC50 [1]: 9 µM
selectivity ratio [5]: 5.4
CC50 at 72 h [6]: 41.9 µM

COc1cc2c(cc1OC)/C(=N/NC(=S)Nc1ccc([N+](=O)[O-])cc1)CC2
EC50 [1]: 0.7 µM
EC50 [2]: > 10 µM
Ratio EC50 [3]: >22
EC50 [4]: 0.45 µM
selectivity ratio [5]: > 14.3
CC50 at 72 h [6]: > 10 µM

COc1cc2c(cc1OC)/C(=N/NC(=S)Nc1ccc(F)cc1)CC2
EC50 [1]: 4 µM
selectivity ratio [5]: > 5
CC50 at 72 h [6]: > 20 µM

NC(=S)N/N=C1\CCc2c1cccc2[N+](=O)[O-]
EC50 [1]: 6.1 µM
selectivity ratio [5]: 14.2
CC50 at 72 h [6]: 84.6 µM
